According to US8197794B2, “Core 2 GlcNAc-T inhibitors” (MS Therapeutics Limited, priority 2003, dated 2012):
Where two headings read alike, the source gives them in different places.

Tests used:
core 2 GlcNAc-T [1] = biological target: T1, core 2 GlcNAc-T (Mus musculus, UniProt Q09324); assay: Cell free assay of core 2 GlcNAc-T on heart lysates of TNF-α mice; assay type: biochemical
T1 construct: heart lysates from either from TNF-alpha over expressing transgenic mice; tissue Taconic-M+B (mice) B6.5JL-Tg (TNF); host or cells: heart lysate of TNF-alpha over-expressing transgenic mice
T1 sequence (Q09324 1-428): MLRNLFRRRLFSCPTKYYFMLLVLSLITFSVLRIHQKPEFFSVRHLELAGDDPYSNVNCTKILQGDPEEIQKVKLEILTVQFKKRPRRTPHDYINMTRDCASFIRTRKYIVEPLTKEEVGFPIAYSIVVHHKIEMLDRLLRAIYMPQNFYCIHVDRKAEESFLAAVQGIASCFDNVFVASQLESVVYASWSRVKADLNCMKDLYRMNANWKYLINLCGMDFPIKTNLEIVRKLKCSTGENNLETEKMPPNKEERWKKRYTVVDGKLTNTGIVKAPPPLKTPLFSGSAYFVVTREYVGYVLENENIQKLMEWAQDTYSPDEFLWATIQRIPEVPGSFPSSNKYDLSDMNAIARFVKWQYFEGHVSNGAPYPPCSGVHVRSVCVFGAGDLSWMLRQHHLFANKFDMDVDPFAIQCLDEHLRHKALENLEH
Procedure: (§1) For Glucose induction of Core 2 GlcNAc-T leukocytes (U937 cells) are exposed to normal glucose (5.8 mM) or high glucose (15 mM) for 24 hours at 37° C. After incubation, the cells maybe lysed and frozen at −20° C. until used for the measurement of core 2 GlcNAc-T. or used immediately. For TNF-α induction of core 2 GlcNAc-T, Human leukocytes(U937 cells) are exposed to human recombinant TNF-alpha (8 pg/ml) in the presence and absence of test compounds After 24 h incubation, the activity of core 2 GlcNAc-T was measured, and expressed as pmoles/h/mg protein. For cell free assay of core 2 GlcNAc-T heart lysates from either from TNF-alpha over expressing transgenic mice (female, B6.5JL-Tg (TNF) supplied by Taconic-M+B, Bomholtveg 10, 8680 Ry, Denmark) or from BB rats (Festing 1979) are exposed to various concentrations of test compound for 1 h at 37° C. Activity of core 2
(§2) GlcNAc-T is measured, and expressed as pmoles/h/mg protein.
(§3) To measure core 2 GlcNAc-T activity, leukocytes were washed in PES, frozen and lysed in 0.9% Triton X-100 at 0° C. The activity of core 2 GlcNAc-T was measured as described previously (Chibber, Diabetes 49, 1724-1730 (2000)). Briefly, the reaction was performed in a reaction mixture containing 50 mM 2(N-morpholino)ethanesulfonic acid (MES, Sigma, Dorset, UK), pH 7.0, 1 mM UDP-6 [′H]-N-acetylglucosamine (16,000 dpm/nmol, NEN Life Science Products, Hounslow, UK), 0.1 M GlcNAc (Sigma, Dorset, Okla.), 1 mM Galβ1-3GalNAcα-p-nitrophenol (Sigma, Dorset, UK) as substrate, and […] of cell lysate (100-200 μg protein) for a final volume of […]. After incubating the mixture for 1 hour at 37° C., the reaction was terminated with 1 ml of ice-cold distilled water and processed on a C18 Sep-Pak column (Waters-Millipore, Watford, UK). After washing the column with 20 ml of distilled water, the product was eluted with 5 ml of methanol. The radioactivity of the samples was counted in a liquid scintillation β-counter (LKB-Wallac, London, UK). Endogenous activity of core 2 GlcNAc-T was measured in the absence of the added acceptor. The specific activity was expressed as pmoles/h/mg of cell protein. In each case, the protein concentration was determined with BioRad protein assay (BioRad, Hertfordshire, UK).

Core 2 GlcNAc-T [2] = biological target: T2, Core 2 GlcNAc-T (Homo sapiens, UniProt Q02742); assay: Cell based assay of core 2 GlcNAc-T activity in human leukocytes (U937 cells)
T2 sequence (Q02742 1-428): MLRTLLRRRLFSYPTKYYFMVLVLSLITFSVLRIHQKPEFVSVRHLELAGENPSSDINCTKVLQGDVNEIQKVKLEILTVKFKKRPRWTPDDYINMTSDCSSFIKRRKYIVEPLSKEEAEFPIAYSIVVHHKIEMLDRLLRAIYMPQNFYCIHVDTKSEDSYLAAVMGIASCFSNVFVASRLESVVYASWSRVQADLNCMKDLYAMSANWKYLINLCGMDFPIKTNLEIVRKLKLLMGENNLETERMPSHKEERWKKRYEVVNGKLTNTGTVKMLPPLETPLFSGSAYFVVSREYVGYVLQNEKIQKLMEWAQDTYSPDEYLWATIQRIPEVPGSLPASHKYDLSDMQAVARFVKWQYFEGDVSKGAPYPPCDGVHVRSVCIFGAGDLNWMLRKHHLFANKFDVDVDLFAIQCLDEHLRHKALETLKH
Procedure: (§4) FIG. 17a and FIG. 17b are graphs illustrating the effect of purified trigoneoside IVa, glycoside F, and shatavarin IV on Core 2 GlcNAc-T activity in cell free (FIG. 17a) and cell based (FIG. 17b) assays. In cell free assays heart lysate from BB rats were incubated in the presence, and absence of 20 ng/ml of each compound. After 1 h incubation at 37° C., the activity of core 2 GlcNAc-T was measured, and expressed as pmoles/h/mg protein. The results are the mean of 3-5 separate experiments. In cell based assays human leukocytes (U937 cells) were exposed to 8 pg/ml human recombinant TNF-alpha in the presence and absence of 20 ng/ml of the test compound. After 24 h incubation, the activity of core 2 GlcNAc-T was measured, and expressed as pmoles/h/mg protein.
as §1, §3

core 2 GlcNAc-T [3] = biological target: core 2 GlcNAc-T (Rattus norvegicus, UniProt Q64165); assay: Cell free assay of core 2 GlcNAc-T on heart lysates of BB rats; assay type: biochemical
Procedure: as §4
For Glucose induction of Core 2 GlcNAc-T leukocytes (U937 cells) are exposed to normal glucose (5.8 mM) or high glucose (15 mM) for 24 hours at 37° C. After incubation, the cells maybe lysed and frozen at −20° C. until used for the measurement of core 2 GlcNAc-T. or used immediately. For TNF-α induction of core 2 GlcNAc-T, Human leukocytes(U937 cells) are exposed to human recombinant TNF-alpha (8 pg/ml) in the presence and absence of test compounds After 24 h incubation, the activity of core 2 GlcNAc-T was measured, and expressed as pmoles/h/mg protein. […]
as §2
To measure core 2 GlcNAc-T activity, leukocytes were washed in PES, frozen and lysed in 0.9% Triton X-100 at 0° C. The activity of core 2 GlcNAc-T was measured as described previously (Chibber, Diabetes 49, 1724-1730 (2000)). […] The radioactivity of the samples was counted in a liquid scintillation β-counter (LKB-Wallac, London, UK). Endogenous activity of core 2 GlcNAc-T was measured in the absence of the added acceptor. The specific activity was expressed as pmoles/h/mg of cell protein. In each case, the protein concentration was determined with BioRad protein assay (BioRad, Hertfordshire, UK).

Core 2 GlcNAc-T [4] = biological target: T2, Core 2 GlcNAc-T; assay: Core 2 GlcNAc-T inhibition, assay system not given; assay type: biochemical
Procedure: as §3

[5] = heart lysates of TNF-α mice, read-out: Approximate Ic50 values, Cell free assay
[6] = read-out: Approximate Ic50 values, Cell based assay

Chain of core 2 GlcNAc-T (Rattus norvegicus, UniProt Q64165) (Q64165 entry or part of it): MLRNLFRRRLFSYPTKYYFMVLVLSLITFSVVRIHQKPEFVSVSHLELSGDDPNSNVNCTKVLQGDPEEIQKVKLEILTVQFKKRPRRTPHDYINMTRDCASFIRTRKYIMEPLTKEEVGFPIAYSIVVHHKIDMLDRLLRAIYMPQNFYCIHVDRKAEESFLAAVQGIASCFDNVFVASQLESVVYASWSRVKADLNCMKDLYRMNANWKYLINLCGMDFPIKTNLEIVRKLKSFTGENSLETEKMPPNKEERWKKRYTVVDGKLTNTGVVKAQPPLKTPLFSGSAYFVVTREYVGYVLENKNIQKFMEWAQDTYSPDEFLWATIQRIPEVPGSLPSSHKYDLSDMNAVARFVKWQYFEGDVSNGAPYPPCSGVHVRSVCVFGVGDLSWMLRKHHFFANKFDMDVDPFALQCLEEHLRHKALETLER

SMILES | IC50 (core 2 GlcNAc-T [1]; [5]) [nM] | IC50 (Core 2 GlcNAc-T [2]; [6]) [nM] | other results
C[C@@H]1CC[C@@]2(OC1)O[C@H]1C[C@H]3[C@@H]4CC=C5C[C@@H](O[C@@H]6O[C@H](CO)[C@@H](O[C@@H]7O[C@@H](C)[C@H](O)[C@@H](O)[C@H]7O)[C@H](O)[C@H]6O[C@@H]6O[C@@H](C)[C@H](O)[C@@H](O)[C@H]6O)CC[C@]5(C)[C@H]4CC[C@]3(C)[C@H]1[C@@H]2C [Dioscin, (3(3,25R)-spirost-5-en-3-yl O-6-deoxy-α-L-mannopyranosyl-(1→2)-046-deoxy-α-L-mannopyranosyl-(1→4)]-β-D-glucopyranoside] | – | – | IC50 (core 2 GlcNAc-T [1]): 40 nM; IC50 (Core 2 GlcNAc-T [2]): 75 nM
CC(CCC1(O)OC2CC3C4CC=C5CC(OC6OC(CO)C(OC7OC(CO)C(O)C(O)C7O)C(O)C6OC6OC(C)C(O)C(O)C6O)CCC5(C)C4CCC3(C)C2C1C)COC1OC(CO)C(O)C(O)C1O [Glycoside F, (3β,25R)-26-(β-D-glucopyranosyloxy)-22-hydroxyfurost-5-en-3-yl O-6-deoxy-α-L-mannopyranosyl-(1→2)-O-[β-D-glucopyranosyl-(1→4)]-β-D-glucopyranoside] | – | – | inhibition at 0.022 µM (core 2 GlcNAc-T [3]; at 22 nM in BB rat heart lysate): 100%
C[C@@H]1CC[C@@]2(OC1)O[C@H]1C[C@H]3[C@@H]4CC=C5C[C@@H](O[C@@H]6O[C@H](CO)[C@@H](O)[C@H](O[C@@H]7O[C@H](CO)[C@@H](O)[C@H](O)[C@H]7O)[C@H]6O[C@@H]6O[C@@H](C)[C@H](O)[C@@H](O)[C@H]6O)CC[C@]5(C)[C@H]4CC[C@]3(C)[C@H]1[C@@H]2C [Gracillin, (3β,25R)-spirost-5-en-3-yl O-6-deoxy-α-L-mannopyranosyl-(1→2)-O-[β-D-glucopyranosyl-(1→3)]-β-D-glucopyranoside] | 4.5 | 2.5 | –
C[C@H](CC[C@@]1(O)O[C@H]2C[C@H]3[C@@H]4CC=C5C[C@@H](O[C@@H]6O[C@H](CO)[C@@H](O[C@@H]7O[C@@H](C)[C@H](O)[C@@H](O)[C@H]7O)[C@H](O)[C@H]6O[C@@H]6O[C@@H](C)[C@H](O)[C@@H](O)[C@H]6O)CC[C@]5(C)[C@H]4CC[C@]3(C)[C@H]2[C@@H]1C)CO[C@@H]1O[C@H](CO)[C@@H](O)[C@H](O)[C@H]1O [Protodioscin] | – | – | IC50 (core 2 GlcNAc-T [3]; heart lysates of BB rats, read-out: Approximate Ic50 values, Cell free assay): 20 nM; IC50 (core 2 GlcNAc-T [3]; system not restated, values as in Table 9 cell free assay, read-out: IC50): ~20 nM; inhibition of Core 2 GlcNAc-T compared to controls (Core 2 GlcNAc-T [2]; 20 ng/ml, TNF-α treated Human leukocytes (U937 cells)): approximately 98.5%; activity (Core 2 GlcNAc-T [4]; sample prepared from Tribulus terrestris, 97% pure, concentrations of 50 μM): no activity
C[C@H](CC[C@@]1(O)O[C@H]2C[C@H]3[C@@H]4CC=C5C[C@@H](O[C@@H]6O[C@H](CO)[C@@H](O)[C@H](O[C@@H]7O[C@H](CO)[C@@H](O)[C@H](O)[C@H]7O)[C@H]6O[C@@H]6O[C@@H](C)[C@H](O)[C@@H](O)[C@H]6O)CC[C@]5(C)[C@H]4CC[C@]3(C)[C@H]2[C@@H]1C)CO[C@@H]1O[C@H](CO)[C@@H](O)[C@H](O)[C@H]1O [Protogracillin] | 3 | 0.25 | –
CC1=C(CC[C@@H](C)CO[C@@H]2O[C@H](CO)[C@@H](O)[C@H](O)[C@H]2O)O[C@H]2C[C@H]3[C@@H]4CC=C5C[C@@H](O[C@@H]6O[C@H](CO)[C@@H](O[C@@H]7O[C@@H](C)[C@H](O)[C@@H](O)[C@H]7O)[C@H](O)[C@H]6O[C@@H]6O[C@@H](C)[C@H](O)[C@@H](O)[C@H]6O)CC[C@]5(C)[C@H]4CC[C@]3(C)[C@@H]12 [Pseudoprotodioscin, (3β,22α,25R)-26-(β-D-glucopyranosyloxy)-furosta-5,20(22)-dien-3-yl O-6-deoxy-α-L-mannopyranosyl (1→2)-046-deoxy-α-L-mannopyranosyl-(1→4)]-[3-D-Glucopyranoside] | 35 | 50 | –
C[C@@H](CC[C@@]1(O)O[C@H]2C[C@H]3[C@@H]4CC[C@@H]5C[C@@H](O[C@@H]6O[C@H](CO)[C@@H](O[C@@H]7O[C@H](CO)[C@@H](O)[C@H](O)[C@H]7O)[C@H](O)[C@H]6O[C@@H]6O[C@@H](C)[C@H](O)[C@@H](O)[C@H]6O)CC[C@]5(C)[C@H]4CC[C@]3(C)[C@H]2[C@@H]1C)CO[C@@H]1O[C@H](CO)[C@@H](O)[C@H](O)[C@H]1O [Shatavarin I, (3β,5β,22α,25S)-26-(β-D-glucopyranosyloxy)-22-hydroxyfurostan-3-yl O-6-deoxy-α-L-mannopyranosyl-(1-42)-O-[β-D-glucopyranosyl-(1→4)]-β-D-glucopyranoside] | 1 | 0.75 | –
C[C@@H](CC[C@@]1(O)O[C@H]2C[C@H]3[C@@H]4CC=C5C[C@@H](O[C@@H]6O[C@H](CO)[C@@H](O[C@@H]7O[C@@H](C)[C@H](O)[C@@H](O)[C@H]7O)[C@H](O)[C@H]6O[C@@H]6O[C@@H](C)[C@H](O)[C@@H](O)[C@H]6O)CC[C@]5(C)[C@H]4CC[C@]3(C)[C@H]2[C@@H]1C)CO[C@@H]1O[C@H](CO)[C@@H](O)[C@H](O)[C@H]1O [Trigonelloside C] | – | – | inhibition of Core 2 GlcNAc-T (Core 2 GlcNAc-T [4]; at 2.5 nM, preparation 98.2% pure): 69%
C[C@@H](CCC1(O)O[C@H]2C[C@H]3[C@@H]4CC=C5C[C@@H](O[C@@H]6O[C@H](CO)[C@@H](O[C@@H]7O[C@H](CO)[C@@H](O)[C@H](O)[C@H]7O)[C@H](O)[C@H]6O[C@@H]6O[C@@H](C)[C@H](O)[C@@H](O)[C@H]6O)CC[C@]5(C)[C@H]4CC[C@]3(C)[C@H]2[C@@H]1C)CO[C@@H]1O[C@H](CO)[C@@H](O)[C@H](O)[C@H]1O (stereo partly drawn) [Trigoneoside IVa, (3β,25 S)-26-(β-D-glucopyranosyloxy)-22-hydroxyfurost-5-en-3-yl O-6-deoxy-α-L-mannopyranosyl-(1→2)-O-[β-D-glucopyranosyl-(1→4)]-β-D-glucopyranoside] | 0.9 | 75 | IC50 (core 2 GlcNAc-T [1]; in cell free systems, read-out: approximate IC50): 0.25 to 0.9 nM
